Active and inactive are the calls of the source. The calls are words filed in the database; no cut-off is given here.

This is an account of results in ChEMBL document CHEMBL3600301, “CholesteroNitrones for Stroke” (J Med Chem, 2015).

The test system of series [1] is Primary neuron. The experiment in a line: Protection against oxygen-glucose deprivation-induced cytotoxicity in Sprague-Dawley rat cerebral cortex primary neuronal cell cultures assessed as increase in cell viability at 0.1 to 250 uM added at onset of recovery period by MTT assay. In kind it is functional, tissue-based.
A short description of series [2]: Toxicity in Sprague-Dawley rat cerebral cortex primary neuronal cell cultures under oxygen-glucose deprivation conditions assessed as […] in cell viability at >50 uM added at onset of recovery period by MTT assay. The format is tissue-based. Conditions: primary neuron.
The test system of series [3] is Primary neuron. The experiment in a line: Protection against oxygen-glucose deprivation-induced cytotoxicity in Sprague-Dawley rat cerebral cortex primary neuronal cell cultures assessed as increase in cell viability at 250 uM added at onset of recovery period by MTT assay. In kind it is functional, tissue-based.
Series [4] has as its system Primary neuron. Nature of the series: Protection against oxygen-glucose deprivation-induced cytotoxicity in Sprague-Dawley rat cerebral cortex primary neuronal cell cultures assessed as increase in cell viability at 250 uM added at onset of recovery period and measured during recovery for 5 days by MTT assay. In kind it is functional, tissue-based.
For series [5], the system named is Primary neuron. Nature of the series: Protection against oxygen-glucose deprivation-induced cytotoxicity in Sprague-Dawley rat cerebral cortex primary neuronal cell cultures assessed as increase in cell viability at 250 uM added after 48 hrs post recovery period and measured during recovery for 5 days by MTT assay. The format is functional, tissue-based.
Series [6] has as its system Rattus norvegicus. Nature of the series: Neuroprotection in Wistar rat model of ischemia assessed as reduction in neurological deficit score at 40 mg/kg measured after 5 days of reperfusion. The format is functional, organism-based.
The subject of series [7] is Rattus norvegicus. Nature of the series: Neuroprotection in Wistar rat model of ischemia assessed as reduction ischemia-induced neuronal death in hippocampal CA1 regions at 40 mg/kg, ip dosed at onset of reperfusion period and measured on 5 days of reperfusion by fluoro jade B staining based fluorescence microscopy. The format is functional. Set-up: scale not given: the % may be the effect or the level left.

Series [8] relates to Rattus norvegicus. Nature of the series: Neuroprotection in Wistar rat model of ischemia assessed as reduction ischemia-induced neuronal death in cortical regions at 40 mg/kg, ip dosed at onset of reperfusion period and measured on 5 days of reperfusion by fluoro jade B staining based fluorescence microscopy. The format is functional. Set-up: scale not given: the % may be the effect or the level left.

For series [9], the system named is Rattus norvegicus. The experiment in a line: Neuroprotection in Wistar rat model of ischemia assessed as reduction ischemia-induced neuronal apoptosis in hippocampal CA1 regions at 40 mg/kg, ip dosed at onset of reperfusion period and measured on 5 days of reperfusion by TUNEL assay. The format is functional. Set-up: scale not given: the % may be the effect or the level left.

Series [10] deals with Rattus norvegicus. Nature of the series: Neuroprotection in Wistar rat model of ischemia assessed as reduction ischemia-induced neuronal apoptosis in cortical regions at 40 mg/kg, ip dosed at onset of reperfusion period and measured on 5 days of reperfusion by TUNEL assay. The format is functional. Set-up: scale not given: the % may be the effect or the level left.
Series [11] relates to Primary neuron. The experiment in a line: Protection against oxygen-glucose deprivation-induced cytotoxicity in Sprague-Dawley rat cerebral cortex primary neuronal cell cultures assessed as increase in cell viability at 1 uM added at onset of recovery period by MTT assay. In kind it is functional, tissue-based.
Series [12] deals with Primary neuron. Nature of the series: Protection against oxygen-glucose deprivation-induced cytotoxicity in Sprague-Dawley rat cerebral cortex primary neuronal cell cultures assessed as increase in cell viability at 5 uM added at onset of recovery period by MTT assay. The format is functional, tissue-based.
Series [13] is described as follows: Toxicity in Sprague-Dawley rat cerebral cortex primary neuronal cell cultures under oxygen-glucose deprivation conditions assessed as […] in cell viability at >10 uM added at onset of recovery period by MTT assay. In kind it is tissue-based. The note with it: primary neuron.
For series [14], the system named is Primary neuron. Nature of the series: Protection against oxygen-glucose deprivation-induced cytotoxicity in Sprague-Dawley rat cerebral cortex primary neuronal cell cultures assessed as increase in cell viability at 1 and 5 uM added at onset of recovery period and measured during recovery for 5 days by MTT assay. The format is functional, tissue-based.
Series [15] is described as follows: Protection against oxygen-glucose deprivation-induced cytotoxicity in Sprague-Dawley rat cerebral cortex primary neuronal cell cultures assessed as increase in cell viability at 1 uM added at onset of recovery period and measured during recovery for 5 days by MTT assay (reference value: 0.842 AU). In kind it is functional, Primary neuron.
Series [16] is described as follows: Protection against oxygen-glucose deprivation-induced cytotoxicity in Sprague-Dawley rat cerebral cortex primary neuronal cell cultures assessed as increase in cell viability at 5 uM added at onset of recovery period and measured during recovery for 5 days by MTT assay (reference value: 0.842 AU). In kind it is functional, Primary neuron.
Series [17] relates to Primary neuron. The experiment in a line: Protection against oxygen-glucose deprivation-induced cytotoxicity in Sprague-Dawley rat cerebral cortex primary neuronal cell cultures assessed as increase in cell viability at 1 and 5 uM added after 48 hrs post recovery period and measured during recovery for 5 days by MTT assay. The format is functional, tissue-based.
For series [18], the system named is Primary neuron. The experiment in a line: Reduction of oxygen-glucose deprivation-induced ROS generation in Sprague-Dawley rat cerebral cortex primary neuronal cell cultures at 1 to 10 uM measured at 2 hrs of recovery after oxygen-glucose deprivation by fluorescence assay. The format is functional, tissue-based.
The subject of series [19] is Primary neuron. The experiment in a line: Reduction of oxygen-glucose deprivation-induced lipid peroxidation in Sprague-Dawley rat cerebral cortex primary neuronal cell cultures assessed as reduction in MDA level at 5 uM measured at 4 hrs of recovery after oxygen-glucose deprivation by TBARS based colorimetric and fluorometric assay. In kind it is functional, tissue-based.

In series [20] the test system is Rattus norvegicus. The experiment in a line: Neuroprotection in Wistar rat model of ischemia assessed as reduction in neurological deficit score at 0.005 mg/kg measured after 5 days of reperfusion (reference value: 2.5 +/- 0.34 No unit). In kind it is functional.
In series [21] the test system is Rattus norvegicus. The experiment in a line: Neuroprotection in Wistar rat model of ischemia assessed as reduction in neurological deficit score at 0.1 mg/kg measured after 5 days of reperfusion (reference value: 2.5 +/- 0.34 No unit). In kind it is functional.
Series [22] has as its system Rattus norvegicus. Nature of the series: Neuroprotection in Wistar rat model of ischemia assessed as reduction ischemia-induced neuronal death in hippocampal CA1 regions at 0.05 mg/kg, ip dosed at onset of reperfusion period and measured on 5 days of reperfusion by fluoro jade B staining based fluorescence microscopy. In kind it is functional. Set-up: scale not given: the % may be the effect or the level left.

Series [23] deals with Rattus norvegicus. The experiment in a line: Neuroprotection in Wistar rat model of ischemia assessed as reduction ischemia-induced neuronal death in cortical regions at 0.05 mg/kg, ip dosed at onset of reperfusion period and measured on 5 days of reperfusion by fluoro jade B staining based fluorescence microscopy. In kind it is functional. Set-up: scale not given: the % may be the effect or the level left.

The subject of series [24] is Rattus norvegicus. Nature of the series: Neuroprotection in Wistar rat model of ischemia assessed as reduction ischemia-induced neuronal death in hippocampal CA1 regions at 0.1 mg/kg, ip dosed at onset of reperfusion period and measured on 5 days of reperfusion by fluoro jade B staining based fluorescence microscopy. Set-up: scale not given: the % may be the effect or the level left. The format is functional.

Series [25] has as its system Rattus norvegicus. Nature of the series: Neuroprotection in Wistar rat model of ischemia assessed as reduction ischemia-induced neuronal death in cortical regions at 0.1 mg/kg, ip dosed at onset of reperfusion period and measured on 5 days of reperfusion by fluoro jade B staining based fluorescence microscopy. Set-up: scale not given: the % may be the effect or the level left. The format is functional.

Series [26] deals with Rattus norvegicus. The experiment in a line: Neuroprotection in Wistar rat model of ischemia assessed as reduction ischemia-induced neuronal apoptosis in hippocampal CA1 regions at 0.05 and 0.1 mg/kg, ip dosed at onset of reperfusion period and measured on 5 days of reperfusion by TUNEL assay. In kind it is functional. Set-up: scale not given: the % may be the effect or the level left.

For series [27], the system named is Rattus norvegicus. Nature of the series: Neuroprotection in Wistar rat model of ischemia assessed as reduction ischemia-induced neuronal apoptosis in cortical regions at 0.05 and 0.1 mg/kg, ip dosed at onset of reperfusion period and measured on 5 days of reperfusion by TUNEL assay. In kind it is functional. Set-up: scale not given: the % may be the effect or the level left.

For the compound `CC(C)CCC[C@@H](C)[C@H]1CC[C@H]2[C@@H]3CCC4=CC(=O)CC[C@]4(C)[C@H]3CC[C@]12C` [4-CHOLESTEN 3-ONE], the result in the series with Primary neuron [1] was inactive. Besides, the Activity result in series [2] is recorded as “Toxic”.

As to `CC(C)CCC[C@@H](C)[C@H]1CC[C@H]2[C@@H]3CC=C4CC(=O)CC[C@]4(C)[C@H]3CC[C@]12C`, the outcome in the series on Primary neuron [1] was inactive.

For the compound `CC(C)(C)/[N+]([O-])=C/c1ccc(S(=O)(=O)[O-])cc1S(=O)(=O)[O-].[Na+].[Na+]`, the result in the series on Primary neuron [3] was Active. Besides, the result with Primary neuron [4], with Primary neuron [5] and in the series with Rattus norvegicus [6] was inactive. For the same compound, the Activity is given as 17% in the series on Rattus norvegicus [7], 66% in the series with Rattus norvegicus [8], 21% with Rattus norvegicus [9] and 55% with Rattus norvegicus [10].

Regarding `CC(C)CCC[C@@H](C)[C@H]1CC[C@H]2[C@@H]3CCC4=C/C(=[N+](\C)[O-])CC[C@]4(C)[C@H]3CC[C@]12C`, the result in the series on Primary neuron [11], with Primary neuron [12], in the series on Primary neuron [3], with Primary neuron [14], with Primary neuron [17] and in the series with Primary neuron [18] was Active. In the series on Primary neuron [19], the result was Active. The Activity entry in [13] is given as “Toxic”; in [15] it was 0.931 a.u; in series [16], 0.995 a.u; in the series on Rattus norvegicus [20], 0.5; in the series on Rattus norvegicus [21], 1.25; with Rattus norvegicus [22], 17%. Also, the Activity was 66% with Rattus norvegicus [23]; 27% with Rattus norvegicus [24]; 83% in the series with Rattus norvegicus [25]; 30% in the series on Rattus norvegicus [26]; 89% in the series on Rattus norvegicus [27].

Regarding `CC(C)CCC[C@@H](C)[C@H]1CC[C@H]2[C@@H]3CCC4=C/C(=[N+](/C)[O-])CC[C@]4(C)[C@H]3CC[C@]12C`, the outcome in the series with Primary neuron [11] and with Primary neuron [12] was inactive. The result with Primary neuron [14] and in the series on Primary neuron [17] was Active. Further, the figures for the Activity in [15] and in [16] were 0.888 a.u and 0.998 a.u, respectively.
